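Dose response: 5 concentrations. Exposure: 48 h. Format: 96-well plates. Endpoint: linear interpolation; highest concentration if not reached. GI50: concentration for 50% inhibition of growth.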 The source made the active and inactive calls. No stated cut-off is given here; in the data, active = GI50 up to about 1.1 µM and inactive = higher.
Key:
Assay in all cases: NCI tumour cell line growth inhibition, 48 h
[1] = system: SW-620
[2] = system: HCC 2998
[3] = system: ACHN
[4] = system: CAKI-1
[5] = system: KM12
[6] = system: COLO 205
[7] = system: SF-268
[8] = system: UO-31
[9] = system: HT-29
[10] = system: EKVX
[11] = system: NCI-H23
[12] = system: LOX IMVI
[13] = system: Malme-3M
[14] = system: A549
[15] = system: HL-60
[16] = system: CCRF-CEM
[17] = system: NCI-H460
[18] = system: K562
[19] = system: SK-OV-3

Measured: GI50

CC1C2(C)OCC(C#N)(C(=N)O2)C1(C#N)C#N (configuration not stated)
inactive: [1] 25.9 µM | [2] > 10 µM | [3] 36.5 µM | [4] 12.5 µM | [5] 36.2 µM | [6] 14.7 µM | [7] 22.8 µM | [8] 36.2 µM | [9] 15.8 µM | [10] 19.1 µM | [11] 29.3 µM | [12] 17.7 µM | [13] 18.5 µM | [14] > 100 µM | [15] 15.6 µM | [16] 22.8 µM | [17] 18.5 µM | [18] 32.8 µM | [19] > 100 µM

CS/C(=N\c1ccc([N+](=O)[O-])cc1C#N)NC(=O)c1ccccc1
inactive: [1] > 100 µM | [2] > 100 µM | [3] > 100 µM | [4] 94.2 µM | [5] > 100 µM | [6] > 100 µM | [7] > 100 µM | [9] > 100 µM | [10] 94.8 µM | [11] > 100 µM | [12] 95.3 µM | [13] > 100 µM | [14] > 100 µM | [15] > 100 µM | [16] > 100 µM | [17] > 100 µM | [18] > 100 µM

Cc1nn(C(=O)CC(=O)Nc2ccccc2Cl)c(C)c1/N=N/c1ccccc1Cl
inactive: [1] > 100 µM | [2] > 100 µM | [3] > 100 µM | [4] > 100 µM | [5] > 100 µM | [6] > 100 µM | [7] 85.7 µM | [8] > 100 µM | [9] > 100 µM | [10] > 100 µM | [11] > 100 µM | [12] > 100 µM | [13] > 100 µM | [14] > 100 µM | [15] > 100 µM | [16] > 100 µM | [17] > 100 µM | [18] > 100 µM | [19] > 100 µM

COc1ccc(CCCNC(=O)Cc2cc(OC)c(OC)cc2CO)cc1OC
inactive: [1] > 100 µM | [2] > 100 µM | [3] > 100 µM | [4] > 100 µM | [5] > 100 µM | [6] > 100 µM | [8] > 100 µM | [9] > 100 µM | [10] > 100 µM | [11] 75 µM | [12] > 100 µM | [13] > 100 µM | [14] > 100 µM | [15] > 100 µM | [16] > 100 µM | [17] > 100 µM | [18] > 100 µM

C/C(CCn1[nH]c(=O)ccc1=O)=N\OCCCc1ccccc1
inactive: [1] > 100 µM | [2] > 100 µM | [3] > 100 µM | [4] > 100 µM | [5] > 100 µM | [7] > 100 µM | [8] > 100 µM | [9] > 100 µM | [10] > 100 µM | [11] > 100 µM | [12] > 100 µM | [13] > 100 µM | [14] > 100 µM | [15] > 100 µM | [16] > 100 µM | [17] > 100 µM | [18] > 100 µM

O=c1[nH]c2cc(C(F)(F)F)ccc2nc1Cc1ccccc1
inactive: [1] > 100 µM | [2] > 100 µM | [3] 52.6 µM | [4] 60.4 µM | [5] > 100 µM | [6] > 100 µM | [7] 44.2 µM | [8] 78.3 µM | [9] > 100 µM | [10] > 100 µM | [11] 23.4 µM | [12] > 100 µM | [15] > 100 µM | [16] > 100 µM | [17] > 100 µM | [18] 62.2 µM | [19] 33 µM

CCOC(=O)C1=C(C)C2C3C(=O)OC(=O)C3C1(C)C1C(=O)OC(=O)C21 (configuration not stated)
inactive: [1] > 100 µM | [2] > 100 µM | [3] > 100 µM | [5] > 100 µM | [6] > 100 µM | [7] > 100 µM | [8] > 100 µM | [9] > 100 µM | [10] > 100 µM | [11] > 100 µM | [12] > 100 µM | [13] > 100 µM | [14] > 100 µM | [15] > 100 µM | [16] > 100 µM | [17] > 100 µM | [18] > 100 µM | [19] > 100 µM

Clc1cccc(C2N3CCCCC3[C@@H]3c4[nH]c5ccccc5c4CCN23)c1 (some centres not stated)
inactive: [1] 44.4 µM | [2] 31.9 µM | [3] 24.2 µM | [4] 45 µM | [7] 33.1 µM | [8] 24.9 µM | [9] 18.2 µM | [10] 56 µM | [11] 22 µM | [13] 18.3 µM | [14] 43.9 µM | [15] 18.7 µM | [16] 19.4 µM | [17] 22.7 µM | [18] 23.1 µM | [19] 46.9 µM

COc1ccc(/N=N/c2c(C)c(C#N)c(=S)n(C3OC(COC(C)=O)C(OC(C)=O)C(OC(C)=O)C3OC(C)=O)c2-c2ccccc2)cc1 (configuration not stated)
inactive: [1] 2.92 µM | [2] 23.4 µM | [3] 46.9 µM | [4] 9.48 µM | [5] 8.43 µM | [6] 6.93 µM | [7] 9.59 µM | [8] 39.8 µM | [9] 5.94 µM | [11] 15.6 µM | [12] 5.42 µM | [13] 7.23 µM | [14] 8.18 µM | [15] 3.13 µM | [16] 4.94 µM | [17] 4.76 µM | [18] 4.52 µM

OC1=CN=C(C2CC2)Oc2ccccc21
inactive: [1] > 100 µM | [2] > 100 µM | [3] > 100 µM | [5] > 100 µM | [6] > 100 µM | [7] > 100 µM | [8] 25.7 µM | [9] > 100 µM | [10] > 100 µM | [11] > 100 µM | [12] > 100 µM | [13] > 100 µM | [14] > 100 µM | [15] > 100 µM | [16] > 100 µM | [17] > 100 µM | [18] 84.9 µM | [19] > 100 µM

C[N+]1(C)C(c2ccccc2)C(=O)O[B@-]1(F)c1ccccc1 (some centres not stated)
inactive: [1] > 100 µM | [2] > 100 µM | [3] > 100 µM | [6] > 100 µM | [7] > 100 µM | [8] > 100 µM | [9] > 100 µM | [10] > 100 µM | [11] > 100 µM | [12] > 100 µM | [13] > 100 µM | [14] > 100 µM | [15] > 100 µM | [16] > 100 µM | [17] > 100 µM | [18] > 100 µM | [19] > 100 µM

From ChEMBL document CHEMBL1201862, “PubChem BioAssay data set” (2004)
